# Experimental data from publication PMC8844822, “SARM1 is a multi-functional NAD(P)ase with prominent base exchange activity, all regulated bymultiple physiologically relevant NAD metabolites” (iScience, 2022).
# Key:
# [1] = target: T1, Aplysia californica ADP ribosyl cyclase (Aplysia californica, UniProt P29241); details: for use as substrate (consumption rate): dinucleotide 250 μM, 25°C, 2–6 h; for effect of metal ion on activity: metal ions 1 mM
# T1 sequence (P29241 25-282): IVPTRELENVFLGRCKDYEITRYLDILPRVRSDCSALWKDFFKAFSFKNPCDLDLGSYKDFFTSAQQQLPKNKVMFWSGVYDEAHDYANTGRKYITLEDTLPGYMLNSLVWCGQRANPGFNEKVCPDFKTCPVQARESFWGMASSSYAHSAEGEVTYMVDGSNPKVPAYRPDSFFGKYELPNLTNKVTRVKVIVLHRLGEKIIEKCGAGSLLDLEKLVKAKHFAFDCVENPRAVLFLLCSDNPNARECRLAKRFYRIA
# Method: (§1) hSARM1 species were routinely assayed by the NAD/NADH-Glo^TM Assay (Promega) while both Aplysia cyclase and CD38 were assayed by fluorometry using ϵNAD ([Orsomando et al., 2000]). […] Other reagents used in addition to, or in place of those above are detailed in text or in figure legends, for example metal ions, free bases, dinucleotide analogues, mononucleotides, and ribosides. Assays were all carried out at 25°C except for temperature studies. Reactions were stopped by HClO4/K2CO3 and analysed by C18-HPLC as reported ([Mori et al., 2014]). Only the acid labile NADH and NADPH were treated with 1 N NaOH and neutralized using 1:1 vol of 1.73 M KH2CO3 while the highly hydrophobic metabolites vacor, VAD, VMN and VR, were analysed by a modified C18-HPLC method ([Buonvicino et al., 2018]). Reaction products were quantified from peak areas (see Figure 2A) based on coelution with standards (except for cyclic products from NAD analogues that were not available and were attributed based on UV-spectra and retention times as predicted). Rates were calculated as follows. Hydrolysis and cyclization were measured from product generation from the respective individual dinucleotide substrate used, e.g., free and cyclic ADP-ribosyl moieties from NAD (Figure 1B). A basal value for hydrolysis/cyclization was taken as sum of these latter two products. In addition to that value, base exchange or transglycosidation was calculated from the expected dinucleotide analog formed in the presence of the corresponding free base, e.g., AcPyrAD from AcPyr and NAD.
# (§2) The kinetic parameters were calculated from initial rates obtained from replicates via best-fitting analysis using the following Equation 1 for CD38 and Aplysia cyclase, or Equation 2 for hSARM1 SAM-TIR, or Equation 3 for hSARM1 full length(Equation 1) V =Vmax[S]/Km+[S] […] In that case, the resulting single curves were fit to Equation 3 as above to evaluate any competition between NMN and the substrate used (see Table 1).
# hSARM1 full length [2] = target: T2, hSARM1 full length (Homo sapiens, UniProt Q6SZW1); assay: NAD(P)ase activity by HPLC (kinetics, substrates, metal ions); format: biochemical; details: hSARM1; for use as substrate (consumption rate): dinucleotide 250 μM, 25°C, 2–6 h; for effect of metal ion on activity: metal ions 1 mM
# T2 construct: Human recombinant SARM1 full length proteins (wild-type and E642A mutant); made in house
# T2 sequence (Q6SZW1 28-724): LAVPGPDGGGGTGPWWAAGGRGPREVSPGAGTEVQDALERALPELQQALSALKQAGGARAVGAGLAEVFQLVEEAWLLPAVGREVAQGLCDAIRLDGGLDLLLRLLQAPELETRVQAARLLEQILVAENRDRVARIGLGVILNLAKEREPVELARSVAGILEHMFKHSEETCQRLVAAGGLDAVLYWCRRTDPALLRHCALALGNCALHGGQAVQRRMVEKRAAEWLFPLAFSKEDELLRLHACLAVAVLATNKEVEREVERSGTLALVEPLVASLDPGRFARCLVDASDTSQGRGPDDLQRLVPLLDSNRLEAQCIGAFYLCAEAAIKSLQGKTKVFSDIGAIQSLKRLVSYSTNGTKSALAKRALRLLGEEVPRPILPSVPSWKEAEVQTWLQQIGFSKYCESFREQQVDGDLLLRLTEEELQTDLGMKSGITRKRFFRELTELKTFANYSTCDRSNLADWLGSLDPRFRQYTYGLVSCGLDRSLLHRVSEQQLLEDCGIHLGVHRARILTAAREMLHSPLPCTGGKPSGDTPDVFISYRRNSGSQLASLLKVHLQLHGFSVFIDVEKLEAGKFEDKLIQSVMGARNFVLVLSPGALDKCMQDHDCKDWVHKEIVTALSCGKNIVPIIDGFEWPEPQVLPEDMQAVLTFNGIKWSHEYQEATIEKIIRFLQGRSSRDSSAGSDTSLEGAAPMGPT
# Method: as §1, §2
# hCD38 [3] = target: T3, hCD38 (Homo sapiens, UniProt P28907); assay: as above; format: biochemical; details: for use as substrate (consumption rate): dinucleotide 250 μM, 2–6 h; for effect of metal ion on activity: metal ions 1 mM
# T3 construct: a soluble fragment Val43-Ile300 with 6x-His tag at C terminus; 6xHis (C); purchased R&D Systems
# T3 sequence (P28907 43-300): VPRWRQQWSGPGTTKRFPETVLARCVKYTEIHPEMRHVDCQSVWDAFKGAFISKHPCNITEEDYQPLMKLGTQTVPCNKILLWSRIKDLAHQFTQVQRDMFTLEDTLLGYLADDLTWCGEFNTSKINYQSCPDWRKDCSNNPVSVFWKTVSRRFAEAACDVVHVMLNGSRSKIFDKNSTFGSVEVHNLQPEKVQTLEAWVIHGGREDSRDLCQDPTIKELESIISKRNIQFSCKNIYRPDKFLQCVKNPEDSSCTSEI
# Method: as §1, §2
# hCD38 [4] = target: T3, hCD38; assay: Base exchange reactions at neutral pH (HPLC); format: biochemical; details: NADP […] alone or + AcPyr 2 mM / Vacor 0.5 mM / Na 2 mM
# Method: (§3) Multiple time stops from individual assays as above were analyzed for linearity, then extents of hydrolysis (white bars), cyclization (red bars), or base exchange (black bars) were calculated from each corresponding product as shown in Figure 1B and STAR methods. […] See also Figures S3–S5, and Table S1
# as §1
# hSARM1 full length [5] = target: T2, hSARM1 full length; assay: Base exchange reactions at neutral pH (HPLC); format: biochemical; details: for increase of all hSARM1 activities by trigger (plateau): hSARM1 full length, NMN 0.2 mM or VMN 0.05 mM, NAD or NADP 250 μM with or without bases
# Method: as §3, §1
# [6] = hSARM1 full length +VMN 0.05 mM, NAD […]
# [7] = hSARM1 full length +VMN 0.05 mM, NADP […]
# [8] = hSARM1 full length +NMN 0.2 mM, NAD […]
# [9] = hSARM1 full length +NMN 0.2 mM, NADP […]
compound,measurement,setting,value
NC(=O)C1=CN([C@@H]2O[C@H](COP(=O)(O)OP(=O)(O)OC[C@H]3O[C@@H](n4cnc5c(N)ncnc54)[C@H](O)[C@@H]3O)[C@@H](O)[C@H]2O)C=CC1 [NADH],use as substrate (consumption rate),[1],negligible usage
same,use as substrate (consumption rate),hSARM1 full length [2],negligible usage
same,use as substrate (consumption rate),"hCD38 [3]; hCD38, 25°C",negligible usage
"Nc1ncnc2c1ncn2[C@@H]1O[C@H](COP(=O)(O)OP(=O)([O-])OC[C@H]2O[C@@H]([n+]3cccc(CNC(=O)Nc4ccc([N+](=O)[O-])cc4)c3)[C@H](O)[C@@H]2O)[C@@H](O)[C@H]1O [VAD, vacor adenine dinucleotide]",use as substrate (consumption rate),[1],no activity
same,use as substrate (consumption rate),hSARM1 full length [2],no activity
same,use as substrate (consumption rate),"hCD38 [3]; hCD38, 25°C",no activity
"Nc1ncnc2c1ncn2[C@@H]1O[C@H](COP(=O)(O)OP(=O)(O)OC[C@H]2O[C@@H]([n+]3cccc(C(=O)O)c3)[C@H](O)[C@@H]2O)[C@@H](O)[C@H]1O [NaAD, nicotinic acid adenine dinucleotide]",use as substrate (consumption rate),[1],negligible usage
same,use as substrate (consumption rate),hSARM1 full length [2],negligible usage
same,use as substrate (consumption rate),"hCD38 [3]; hCD38, 25°C",negligible usage
nicotinamide adenine dinucleotide phosphate [NADP],rate,hCD38 [4],3521 ±605 mU/mg
same,Km,[1]; substrate as labelled,384 ± 0.17 µM
same,Vmax,[1]; substrate as labelled,"20,043 ± 724 mU/mg"
same,Vmax,"hCD38 [3]; hCD38, substrate as labelled",4376 ± 24.1 mU/mg
same,Km,"hCD38 [3]; hCD38, substrate as labelled, 25°C, pH 7.5",11.7 ± 0.88 µM
nicotinic acid adenine dinucleotide phosphate [NaADP],use as substrate (consumption rate),[1],negligible usage
same,use as substrate (consumption rate),hSARM1 full length [2],negligible usage
same,use as substrate (consumption rate),"hCD38 [3]; hCD38, 25°C",negligible usage
"O=C(NCc1ccc[n+]([C@@H]2O[C@H](COP(=O)(O)O)[C@@H](O)[C@H]2O)c1)Nc1ccc([N+](=O)[O-])cc1 [VMN, vacor mononucleotide]","cyclization, share of products",hSARM1 full length [5]; [6],8.79%
same,"hydrolysis, share of products",hSARM1 full length [5]; [6],91.21%
same,rate,"hSARM1 full length [5]; hSARM1 full length +VMN 0.05 mM, NAD […] alone or + free base",210.1 ±14.4 mU/mg
same,rate (relative fold),"hSARM1 full length [5]; hSARM1 full length +VMN 0.05 mM, NAD […], relative to NAD alone without trigger",9.63 ±0.660 fold
same,"cyclization, share of products",hSARM1 full length [5]; [7],0.64%
same,"hydrolysis, share of products",hSARM1 full length [5]; [7],99.36%
same,rate,"hSARM1 full length [5]; hSARM1 full length +VMN 0.05 mM, NADP […] alone or + free base",138.3 ±1.72 mU/mg
same,rate (relative fold),"hSARM1 full length [5]; hSARM1 full length +VMN 0.05 mM, NADP […], relative to NADP alone without trigger",9.41 ±0.117 fold
same,increase of all hSARM1 activities by trigger (plateau),hSARM1 full length [5],8- to 10 fold
[Mg] [magnesium],effect of metal ion on activity,[1],no effect
same,effect of metal ion on activity,hSARM1 full length [2],no effect
same,effect of metal ion on activity,hCD38 [3]; hCD38,no effect
[Cu+2] [copper],effect of metal ion on activity,[1],clear inhibition
same,effect of metal ion on activity,hSARM1 full length [2],clear inhibition
same,effect of metal ion on activity,hCD38 [3]; hCD38,clear inhibition
"NC(=O)c1ccc[n+]([C@@H]2O[C@H](COP(=O)([O-])OP(=O)(O)OC[C@H]3O[C@@H](n4cnc5c(=O)[nH]c(N)nc54)[C@H](O)[C@@H]3O)[C@@H](O)[C@H]2O)c1 [NGD, nicotinamide guanine dinucleotide]","cyclization, share of total substrate consumption",hCD38 [3]; CD38,~80%
"NC(=O)c1ccc[n+]([C@H]2O[C@H](COP(=O)([O-])OP(=O)(O)OC[C@H]3O[C@@H](n4cnc5c(N)ncnc54)[C@H](O)[C@@H]3O)[C@@H](O)[C@H]2O)c1 [αNAD, alpha-NAD]",use as substrate (consumption rate),[1],no activity
same,use as substrate (consumption rate),hSARM1 full length [2],no activity
same,use as substrate (consumption rate),"hCD38 [3]; hCD38, 25°C",no activity
NC(=O)C1=CN([C@@H]2O[C@H](COP(=O)(O)OP(=O)(O)OC[C@H]3O[C@@H](n4cnc5c(N)ncnc54)[C@H](OP(=O)(O)O)[C@@H]3O)[C@@H](O)[C@H]2O)C=CC1 [NADPH],use as substrate (consumption rate),[1],negligible usage
same,use as substrate (consumption rate),hSARM1 full length [2],negligible usage
same,use as substrate (consumption rate),"hCD38 [3]; hCD38, 25°C",negligible usage
[Zn+2] [zinc],effect of metal ion on activity,[1],clear inhibition
same,effect of metal ion on activity,hSARM1 full length [2],clear inhibition
same,effect of metal ion on activity,hCD38 [3]; hCD38,clear inhibition
"NC(=O)c1ccc[n+]([C@@H]2O[C@H](COP(=O)([O-])O)[C@@H](O)[C@H]2O)c1 [NMN, nicotinamide mononucleotide]","cyclization, share of products",hSARM1 full length [5]; [8],9.51%
same,"hydrolysis, share of products",hSARM1 full length [5]; [8],90.49%
same,rate,"hSARM1 full length [5]; hSARM1 full length +NMN 0.2 mM, NAD […] alone or + free base",187.9 ±26.9 mU/mg
same,rate (relative fold),"hSARM1 full length [5]; hSARM1 full length +NMN 0.2 mM, NAD […], relative to NAD alone without trigger",8.61±1.23 fold
same,"cyclization, share of products",hSARM1 full length [5]; [9],~ 0.05%
same,"hydrolysis, share of products",hSARM1 full length [5]; [9],99.95%
same,rate,"hSARM1 full length [5]; hSARM1 full length +NMN 0.2 mM, NADP […] alone or + free base",117.3 ±4.72 mU/mg
same,rate (relative fold),"hSARM1 full length [5]; hSARM1 full length +NMN 0.2 mM, NADP […], relative to NADP alone without trigger",7.98 ±0.321 fold
same,increase of all hSARM1 activities by trigger (plateau),hSARM1 full length [5],8- to 10 fold
